Assay results from US4578489A (priority 1982, dated 1986).
Read-outs that look alike come from different tables or passages of the source.

What was measured:
Proteus vulgaris = assay: Minimum inhibitory concentration against bacteria, strain A; format: cell-based; details: 24 hours at 30° C.; tested at 100 and 300 mg/liter
Procedure: (§1) Overnight cultures, grown in Caso peptone bouillon (Merck) of the various strains of bacteria: (A) Proteus vulgaris, (B) Pseudomonas aeruginosa, (C) Enterobacter aerogenes, (D) Serratia marcencens, (E) Alcaligenes denitrificans and (F) Bacillus subtilis are each diluted in a ratio of 1/1000 in saline solution. Sufficient of the suspensions is put into Caso peptone bouillon to dilute the bacteria again in the ratio of 1/1000. Each of the compounds listed in Table 1 is then added in amounts of 100 and 300 mg/liter. After being incubated for 24 hours at 30° C. in a shaking waterbath, the turbidity of the samples is evaluated.

Pseudomonas aeruginosa = assay: Minimum inhibitory concentration against bacteria, strain B; format: cell-based; details: 24 hours at 30° C.; tested at 100 and 300 mg/liter
Procedure: as §1

Enterobacter aerogenes = assay: Minimum inhibitory concentration against bacteria, strain C; format: cell-based; details: 24 hours at 30° C.; tested at 100 and 300 mg/liter
Procedure: as §1

Serratia marcencens = assay: Minimum inhibitory concentration against bacteria, strain D; format: cell-based; details: 24 hours at 30° C.; tested at 100 and 300 mg/liter
Procedure: as §1

[1] = system: Alcaligenes denitrificans; assay: Minimum inhibitory concentration against bacteria, strain E; format: cell-based; details: 24 hours at 30° C.; tested at 100 and 300 mg/liter
Procedure: as §1

Bacillus subtilis = assay: Minimum inhibitory concentration against bacteria, strain F; format: cell-based; details: 24 hours at 30° C.; tested at 100 and 300 mg/liter
Procedure: as §1

[2] = system: mixed culture of bacteria; format: cell-based; parameters: key: +: growth, no destruction; (+): growth less than that of control (>10 colonies), slight destruction; (-): slight growth (1-10 colonies); -: no growth, destruction
Aspergillus niger = assay: Minimum inhibitory concentration against fungi, agar incorporation test, strain K; format: cell-based; details: malt extract/agar
Procedure: (§2) The invention is carried out using the known agar incorporation test in the following fungi:
(§3) in a malt extract/agar (Merck). Inhibition is effected by adding sufficient of each of the various compounds to give final concentrations in the agar of 2, 5, 10, 50 and 100 mg/liter. The concentrations (mg/liters) required to inhibit the growth of the fungi (starting from traces of fungi added dropwise) are illustrated in Table 3.

Aspergillus phoenicis = assay: Minimum inhibitory concentration against fungi, agar incorporation test, strain L; format: cell-based; details: malt extract/agar
Procedure: as §2
(L) Aspergillus phoenicis
as §3

Penicillium funiculosum = assay: Minimum inhibitory concentration against fungi, agar incorporation test, strain M; format: cell-based; details: malt extract/agar
Procedure: as §2
(M) Penicillium funiculosum
as §3

Alternaria alternata = assay: Minimum inhibitory concentration against fungi, agar incorporation test, strain N; format: cell-based; details: malt extract/agar
Procedure: as §2, §3

[3] = system: Cladosporium cladosporioides; assay: Minimum inhibitory concentration against fungi, agar incorporation test, strain O; format: cell-based; details: malt extract/agar
Procedure: as §2
(O) Cladosporium cladosporioides
as §3

Candida albicans = assay: Minimum inhibitory concentration against fungi, agar incorporation test, strain P; format: cell-based; details: malt extract/agar
Procedure: as §2, §3

Endomyces geotrichum = assay: Minimum inhibitory concentration against fungi, agar incorporation test, strain Q; format: cell-based; details: malt extract/agar
Procedure: as §2, §3

Aureobasidium pullulans = assay: Minimum inhibitory concentration against fungi, agar incorporation test, strain R; format: cell-based; details: malt extract/agar
Procedure: as §2
(R) Aureobasidium pullulans
as §3

Chaetomium globosum = assay: Minimum inhibitory concentration against fungi, agar incorporation test, strain S; format: cell-based; details: malt extract/agar
Procedure: as §2, §3

Chlorella vulgaris = assay: Action against algae: Chlorella vulgaris; format: cell-based; parameters: key: --: no growth on the agar, 3 ppm have destroyed the algae in 6 hours; details: 3 mg/liter
Procedure: Cultures of Chlorella vulgaris which had been grown for 14 days in algae nutrient media are diluted in the ratio 1/200 in the algae nutrient medium. Each of the compounds listed in Table 1 is then added in such an amount as to give a final concentration of 3 mg/liter. After incubating for 6 hours, 10 μl of each culture are withdrawn and added dropwise to algae/agar in order to determine the destructive action. After the cultures have incubated for 14 days under illumination (14 hours of light and 10 hours of darkness, alternately), the growth in the algae medium (determination of growth inhibition) and on the algae/agar (determination of algae-destroying action) is assessed visually.

[4] = system: Enteromorpha intestinalis; assay: Action against Enteromorpha intestinalis: destruction (minimum killing concentration); format: in vivo; details: 4 hours in seawater, then 6-8 weeks in fresh seawater
Procedure: (§4) The action against the green alga Enteromorpha, which is the most important in seawter fouling, is investigated in sterile-filtered seawater containing an Erd-Schreiber solution. This solution is composed of a nutrient extract, phosphate and nitrate. The incubation of Enteromorpha intestinalis is carried out in a light thermostat at 18° C. under an alternation of 14 hours of light and 10 hours of darkness.
The algae which have been cultured in this way are exposed to the products under investigation for a short time (4 hours) in seawater. The minimum killing concentration (MKC) is determined by taking the algae out of the seawater containing a specific quantity of algicide, after the treatment time in the latter, washing the algae and investigating growth or mortality after incubation in fresh seawater for a further period of 6-8 weeks.
The minimum killing concentration (MKC) indicates the amount of substance required to cause such damage to the algae within a specific time that they can no longer recover in fresh seawater and die out.

[5] = system: Enteromorpha intestinalis; assay: Action against Enteromorpha intestinalis: inhibitory concentration (MIC); format: in vivo; details: seawater containing biocide for entire test; concentration tested 0.5 mg/liter
Procedure: as §4
For determining the inhibitory concentration (MIC), the algae are kept in seawater containing biocide for the entire duration of the test (concentration tested: 0.5 mg/liter).

Artemia salina = assay: Action against Artemia salina nauplii; format: in vivo; parameters: key: 0: no change; 1: slight change; 1-2: animals are attacked; 2: animals are strongly attacked; 2-3: animals are nearly all dead; 3: animals are all dead
Procedure: The eggs, which are available commercially, are caused to hatch by vigorous aeration. When 2-3 days old, the nauplii are exposed to the products at various concentrations (concentrations tested: 2.5; 1; 0.5 and 0.25 mg/liter) in synthetic seawater, and are observed over a prolonged period of time.

Structure (SMILES): CCCCCCCCCCCC[N+](CCO)(CCO)Cc1ccccc1.CCC[CH2][Sn-]([Cl])([Cl])([CH2]CCC)[CH2]CCC [Example 5, Dihydroxyethyl-benzyl-lauryl / Tributyldichloro]
- MIC against bacteria, strain A (Proteus vulgaris): 100 µg/mL
- MIC against bacteria, strain B (Pseudomonas aeruginosa): 100 µg/mL
- MIC against bacteria, strain C (Enterobacter aerogenes): 100 µg/mL
- MIC against bacteria, strain D (Serratia marcencens): 100 µg/mL
- MIC against bacteria, strain E [1]: 100 µg/mL
- MIC against bacteria, strain F (Bacillus subtilis): 100 µg/mL
- Growth (destruction of a mixed culture of bacteria) ([2]; 5 mg/l, culture diluted 1/1000 in Tyrode): +
- Growth (destruction of a mixed culture of bacteria) ([2]; 5 mg/l, culture diluted 1/10000 in Tyrode): +
- Growth (destruction of a mixed culture of bacteria) ([2]; 10 mg/l, culture diluted 1/1000 in Tyrode): +
- Growth (destruction of a mixed culture of bacteria) ([2]; 10 mg/l, culture diluted 1/10000 in Tyrode): +
- Growth (destruction of a mixed culture of bacteria) ([2]; 30 mg/l, culture diluted 1/1000 in Tyrode): +
- Growth (destruction of a mixed culture of bacteria) ([2]; 30 mg/l, culture diluted 1/10000 in Tyrode): +
- Growth (destruction of a mixed culture of bacteria) ([2]; 60 mg/l, culture diluted 1/1000 in Tyrode): +
- Growth (destruction of a mixed culture of bacteria) ([2]; 60 mg/l, culture diluted 1/10000 in Tyrode): +
- Growth (destruction of a mixed culture of bacteria) ([2]; 100 mg/l, culture diluted 1/1000 in Tyrode): +
- Growth (destruction of a mixed culture of bacteria) ([2]; 100 mg/l, culture diluted 1/10000 in Tyrode): (+) (growth less than that of control (>10 colonies), slight destruction)
- MIC against fungi, strain K (Aspergillus niger): 5 µg/mL
- MIC against fungi, strain L (Aspergillus phoenicis): 5 µg/mL
- MIC against fungi, strain M (Penicillium funiculosum): 5 µg/mL
- MIC against fungi, strain N (Alternaria alternata): 5 µg/mL
- MIC against fungi, strain O [3]: 2 µg/mL
- MIC against fungi, strain P (Candida albicans): 5 µg/mL
- MIC against fungi, strain Q (Endomyces geotrichum): 5 µg/mL
- MIC against fungi, strain R (Aureobasidium pullulans): 2 µg/mL
- MIC against fungi, strain S (Chaetomium globosum): 2 µg/mL
- Growth on the agar (algae-destroying action) (Chlorella vulgaris; 6 hours exposure, 14 days incubation): --
- Growth in the medium (growth inhibition) (Chlorella vulgaris; 14 days): --
- Destruction, 5 mg/liter [4]: yes
- MIC [5]: 0.5 µg/mL
- Action against Artemia salina (Artemia salina; 0,5 mg/l, 6 hours): 1-2
- Action against Artemia salina (Artemia salina; 0,5 mg/l, 24 hours): 2-3
- Action against Artemia salina (Artemia salina; 0,5 mg/l, 48 hours): 3
- Action against Artemia salina (Artemia salina; 0,25 mg/l, 6 hours): 0-1
- Action against Artemia salina (Artemia salina; 0,25 mg/l, 24 hours): 2
- Action against Artemia salina (Artemia salina; 0,25 mg/l, 48 hours): 2-3
- Action against Artemia salina (Artemia salina; 1 mg/l, 6 hours): 2
- Action against Artemia salina (Artemia salina; 1 mg/l, 24 hours): 3
- Action against Artemia salina (Artemia salina; 1 mg/l, 48 hours): 3
- Action against Artemia salina (Artemia salina; 2,5 mg/l, 6 hours): 2-3
- Action against Artemia salina (Artemia salina; 2,5 mg/l, 24 hours): 3
- Action against Artemia salina (Artemia salina; 2,5 mg/l, 48 hours): 3
